Laboratory results reported in PubChem BioAssay (NCI).
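Cultured in 96-well plates, cells were exposed to test compound for 48 hours across five concentrations. At the GI50, growth is halved. Definition used: TGI = concentration required for complete inhibition of growth.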

Columns and labels:
Test in all cases: inhibition of tumour cell growth, NCI panel, 48 h
786-0 renal = system: 786-0 renal
A498 renal = system: A498 renal
A549 NSCLC = system: A549 NSCLC
ACHN renal = system: ACHN renal
BT-549 breast = system: BT-549 breast
CAKI-1 renal = system: CAKI-1 renal
COLO 205 colon = system: COLO 205 colon
DU-145 prostate = system: DU-145 prostate
EKVX NSCLC = system: EKVX NSCLC
HCC-2998 colon = system: HCC-2998 colon
HCT-116 colon = system: HCT-116 colon
HCT-15 colon = system: HCT-15 colon
HL-60(TB) leukemia = system: HL-60(TB) leukemia
HOP-62 NSCLC = system: HOP-62 NSCLC
HOP-92 NSCLC = system: HOP-92 NSCLC
HS 578T breast = system: HS 578T breast
IGROV1 ovarian = system: IGROV1 ovarian
K-562 leukemia = system: K-562 leukemia
LOX IMVI melanoma = system: LOX IMVI melanoma
M14 melanoma = system: M14 melanoma
MALME-3M melanoma = system: MALME-3M melanoma
MCF7 breast = system: MCF7 breast
MDA-MB-231 breast = system: MDA-MB-231 breast
MDA-MB-468 breast = system: MDA-MB-468 breast
NCI-H226 lung = system: NCI-H226 lung
NCI-H23 lung = system: NCI-H23 lung
NCI-H522 lung = system: NCI-H522 lung
NCI/ADR-RES ovarian = system: NCI/ADR-RES ovarian
OVCAR-4 ovarian = system: OVCAR-4 ovarian
OVCAR-5 ovarian = system: OVCAR-5 ovarian
PC-3 prostate = system: PC-3 prostate
RPMI-8226 leukemia = system: RPMI-8226 leukemia
RXF 393 renal = system: RXF 393 renal
SF-268 CNS = system: SF-268 CNS
SF-295 CNS = system: SF-295 CNS
SF-539 CNS = system: SF-539 CNS
SK-MEL-2 melanoma = system: SK-MEL-2 melanoma
SK-MEL-28 melanoma = system: SK-MEL-28 melanoma
SK-MEL-5 melanoma = system: SK-MEL-5 melanoma
SK-OV-3 ovarian = system: SK-OV-3 ovarian
SN12C renal = system: SN12C renal
SNB-19 CNS = system: SNB-19 CNS
SNB-75 CNS = system: SNB-75 CNS
T-47D breast = system: T-47D breast
TK-10 renal = system: TK-10 renal
UACC-257 melanoma = system: UACC-257 melanoma
UACC-62 melanoma = system: UACC-62 melanoma
UO-31 renal = system: UO-31 renal

COc1ccc2c(c1)c(-c1cc3nc(-c4cn(C)c5ncc(Br)cc45)cc(N)n3n1)cn2C
GI50 (786-0 renal): 1.73 µM | TGI (786-0 renal): 3.16 µM | GI50 (A498 renal): 2.18 µM | TGI (A498 renal): 7.22 µM | GI50 (A549 NSCLC): 2.31 µM | TGI (A549 NSCLC): 9.05 µM | GI50 (ACHN renal): 1.5 µM | TGI (ACHN renal): 3.15 µM | GI50 (BT-549 breast): 2.12 µM | TGI (BT-549 breast): 4.49 µM | GI50 (CAKI-1 renal): 1.48 µM | TGI (CAKI-1 renal): 3.3 µM | GI50 (COLO 205 colon): 1.81 µM | TGI (COLO 205 colon): 3.44 µM | GI50 (DU-145 prostate): 2.79 µM | TGI (DU-145 prostate): 8.15 µM | GI50 (EKVX NSCLC): 1.48 µM | TGI (EKVX NSCLC): 3.39 µM | GI50 (HCC-2998 colon): 1.66 µM | TGI (HCC-2998 colon): 3.16 µM | GI50 (HCT-116 colon): 1.66 µM | TGI (HCT-116 colon): 3.04 µM | GI50 (HCT-15 colon): 1.48 µM | TGI (HCT-15 colon): 3.54 µM | GI50 (HL-60(TB) leukemia): 2.07 µM | TGI (HL-60(TB) leukemia): 5.39 µM | GI50 (HOP-62 NSCLC): 2.09 µM | TGI (HOP-62 NSCLC): 5.98 µM | GI50 (HOP-92 NSCLC): 2.05 µM | TGI (HOP-92 NSCLC): 4.24 µM | GI50 (HS 578T breast): 2.29 µM | TGI (HS 578T breast): 6.47 µM | GI50 (IGROV1 ovarian): 2.04 µM | TGI (IGROV1 ovarian): 4.54 µM | GI50 (K-562 leukemia): 3.17 µM | TGI (K-562 leukemia): > 100 µM | GI50 (LOX IMVI melanoma): 1.53 µM | TGI (LOX IMVI melanoma): 2.89 µM | GI50 (M14 melanoma): 1.66 µM | TGI (M14 melanoma): 3.23 µM | GI50 (MALME-3M melanoma): 1.92 µM | TGI (MALME-3M melanoma): 3.47 µM | GI50 (MCF7 breast): 1.77 µM | TGI (MCF7 breast): 3.72 µM | GI50 (MDA-MB-231 breast): 1.62 µM | TGI (MDA-MB-231 breast): 3.28 µM | GI50 (MDA-MB-468 breast): 1.32 µM | TGI (MDA-MB-468 breast): 2.82 µM | GI50 (NCI-H226 lung): 4.19 µM | TGI (NCI-H226 lung): 20.1 µM | GI50 (NCI-H23 lung): 2.25 µM | TGI (NCI-H23 lung): 6.77 µM | GI50 (NCI-H522 lung): 1.87 µM | TGI (NCI-H522 lung): 3.9 µM | GI50 (NCI/ADR-RES ovarian): 2.28 µM | TGI (NCI/ADR-RES ovarian): 5.62 µM | GI50 (OVCAR-4 ovarian): 2.13 µM | TGI (OVCAR-4 ovarian): 5.17 µM | GI50 (OVCAR-5 ovarian): 1.63 µM | TGI (OVCAR-5 ovarian): 3.96 µM | GI50 (PC-3 prostate): 2.45 µM | TGI (PC-3 prostate): > 100 µM | GI50 (RPMI-8226 leukemia): 3.32 µM | TGI (RPMI-8226 leukemia): > 100 µM | GI50 (RXF 393 renal): 1.96 µM | TGI (RXF 393 renal): 3.57 µM | GI50 (SF-268 CNS): 2.3 µM | TGI (SF-268 CNS): 6.14 µM | GI50 (SF-295 CNS): 1.77 µM | TGI (SF-295 CNS): 3.65 µM | GI50 (SF-539 CNS): 1.67 µM | TGI (SF-539 CNS): 3.13 µM | GI50 (SK-MEL-2 melanoma): 2.07 µM | TGI (SK-MEL-2 melanoma): 4.84 µM | GI50 (SK-MEL-28 melanoma): 1.61 µM | TGI (SK-MEL-28 melanoma): 3.02 µM | GI50 (SK-MEL-5 melanoma): 3.27 µM | TGI (SK-MEL-5 melanoma): 12.1 µM | GI50 (SK-OV-3 ovarian): 2.41 µM | TGI (SK-OV-3 ovarian): 6.25 µM | GI50 (SN12C renal): 2.11 µM | TGI (SN12C renal): 6.03 µM | GI50 (SNB-19 CNS): 2.25 µM | TGI (SNB-19 CNS): 5.58 µM | GI50 (SNB-75 CNS): 1.66 µM | TGI (SNB-75 CNS): 4.58 µM | GI50 (T-47D breast): 1.66 µM | TGI (T-47D breast): 3.68 µM | GI50 (TK-10 renal): 2.36 µM | TGI (TK-10 renal): 6.69 µM | GI50 (UACC-257 melanoma): 1.79 µM | TGI (UACC-257 melanoma): 3.72 µM | GI50 (UACC-62 melanoma): 1.56 µM | TGI (UACC-62 melanoma): 3.1 µM | GI50 (UO-31 renal): 1.78 µM | TGI (UO-31 renal): 4.41 µM
